Among the data in PubChem BioAssay (NCI) are TGI values, retold here.

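Cells were grown in 96-well plates and exposed to each compound for 48 hours at five concentrations; endpoints were interpolated linearly between bracketing concentrations, or set to the highest concentration if not reached. TGI marks complete inhibition of growth.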 Bounds are passed on as bounds.

Holding throughout (test): NCI tumour cell line growth inhibition, 48 h
In assay [1] the test system is OVCAR-4 ovarian.
The test system of assay [2] is ACHN renal.
For assay [3], the system named is SF-539 CNS.
Assay [4] concerns NCI-H226 lung.
Assay [5] has as its system OVCAR-3 ovarian.
In assay [6] the test system is SK-OV-3 ovarian.
Assay [7] deals with RPMI-8226 leukemia.
For assay [8], the system named is NCI-H522 lung.
The test system of assay [9] is UO-31 renal.
Assay [10] concerns SW-620 colon.
Assay [11] deals with NCI-H23 lung.
Assay [12] has as its system PC-3 prostate.
Assay [13] concerns HT29 colon.
The subject of assay [14] is UACC-62 melanoma.
Assay [15] concerns NCI/ADR-RES ovarian.
In assay [16] the test system is HOP-62 NSCLC.
The subject of assay [17] is MDA-N.
The subject of assay [18] is MOLT-4 leukemia.

Take `S=C1N=C(Cl)/C(=C\c2ccco2)N1`: the TGI in assay [1], in assay [2], in assay [3], in assay [4], in assay [5] and in assay [6] was more than 100 µM throughout. For the same compound, the TGI in assay [7], in assay [8], in [9], in assay [10], in [11] and in assay [12] was more than 100 µM each time. For the same compound, the TGI in assay [13], in assay [14], in [15] and in assay [16] was more than 100 µM throughout.
For `Cc1n[nH]c(=O)n1/N=C/c1ccncc1`, the TGI in assay [1], in [2], in assay [3], in [4], in assay [17] and in assay [5] was more than 100 µM each time. In addition, the TGI in assay [6], in assay [8], in assay [9], in [10], in assay [18] and in [11] was more than 100 µM each time. Moreover, the TGI in assay [13], in assay [14], in assay [15] and in assay [16] was more than 100 µM each time.
With `Cn1c2ccccc2c2nc3ccccc3c(Cl)c21`, the TGI in assay [1], in assay [3], in assay [4], in assay [5], in assay [6] and in [7] was more than 100 µM throughout. In addition, the TGI in assay [8], in [10], in assay [18], in [11], in assay [12] and in assay [13] was more than 100 µM throughout. Also, the TGI in assay [14], in assay [15] and in [16] was more than 100 µM throughout.
Take `CC(/C=N\NC(=S)N(C)C)=N/NC(=S)N(C)C`: the TGI was more than 100 µM in assay [1]; more than 100 µM in assay [3]; 13.9 µM in assay [4]; more than 100 µM in assay [17]; more than 22.8 µM in [5]; more than 51.9 µM in assay [6]. Besides, the TGI is more than 100 µM in assay [7]; 20.6 µM in assay [8]; more than 39.2 µM in assay [9]; more than 100 µM in [10]; more than 100 µM in assay [18]; more than 37.7 µM in assay [11]. Besides, the TGI in assay [12] is more than 100 µM; in [13], more than 100 µM; in assay [14], more than 100 µM; in assay [16], more than 51.1 µM.
Regarding `Cc1sc(N)c(S(=O)(=O)c2ccccc2)c1C`, the TGI in [1] was more than 100 µM; in assay [2] it was more than 100 µM; in assay [3], 71 µM; in assay [4], more than 100 µM; in assay [5], more than 100 µM; in assay [6] it was more than 100 µM. The TGI in assay [7], in assay [8], in assay [9], in assay [10], in assay [18] and in assay [11] was more than 100 µM throughout. The TGI in [12], in [13], in assay [14] and in [15] was more than 100 µM throughout.
As for `CCOP(=O)(OCC)[C@]12C[C@@H](C)C=C[C@H]1COC2=O`, the TGI in [1], in assay [2], in assay [3], in assay [17], in [5] and in assay [6] was more than 100 µM throughout. Moreover, the TGI in assay [7], in assay [8], in assay [9], in assay [10], in assay [18] and in assay [11] was more than 100 µM throughout. Further, the TGI in assay [12], in assay [14] and in assay [16] was more than 100 µM throughout.
As to `C[S+](C)CC(=O)c1ccc2c(c1)Sc1ccccc1O2`, the TGI worked out at 15.4 µM in assay [1]; 16.1 µM in [2]; 2.29 µM in assay [3]; 11.5 µM in [4]; 7.58 µM in assay [5]; 19.6 µM in [6]. The TGI in assay [7] was more than 39.2 µM; in assay [8] it was 2.5 µM; in [9], 12 µM; in assay [10], more than 43.2 µM; in assay [18], more than 94.4 µM; in assay [11], 14 µM. For the same compound, the TGI was 4.03 µM in [12]; 9.15 µM in assay [13]; 9.38 µM in [14]; more than 39.7 µM in assay [15]; 28.4 µM in assay [16].
For the compound `O=C(NCCNCCNC(=O)C(F)(F)F)C(F)(F)F`, the TGI in [1], in assay [2], in [4], in assay [17], in assay [5] and in assay [6] was more than 100 µM each time. The TGI in [7], in assay [9], in [10], in [18], in assay [11] and in assay [12] was more than 100 µM throughout. Further, the TGI in [13], in assay [14], in assay [15] and in assay [16] was more than 100 µM throughout.
Consider `CC1(C)CCC[C@]2(C)[C@@H]1CC[C@@]13O[C@@H]1C1=C(CO)C(=O)OC1=C[C@@H]23`, for which the TGI is 55.9 µM in assay [1]; more than 100 µM in [2]; 30.2 µM in assay [4]; 46.5 µM in assay [6]; 62.8 µM in [7]; 24.7 µM in [8]. In addition, the TGI in assay [9] was 26 µM; in assay [10] it was 37.5 µM; in assay [18] it was more than 100 µM; in [11] it was 46.5 µM; in assay [12], 57.4 µM; in assay [13] it was 29.6 µM. The values for the TGI in assay [14], in assay [15] and in assay [16] were 40.7 µM, 37.7 µM and 49.3 µM, respectively.
